Species on record: Rattus norvegicus
Assay: Open TG-GATES - Regimen: Single
Type: toxicity, organism-based, Sprague-Dawley
Design: regimen Single, gender Male, age 6 weeks
Conditions: in vivo, po, 1000 mg/kg, route gavage, dose level High; for APTT / Bas / Eos / Fbg / Hb / Ht / Lym / MCH / MCHC / MCV / Mono / Neu / PT / Plat / RBC / Ret / WBC: tissue Blood; for KIDNEY_L / KIDNEY_R / KIDNEY_TOTAL: tissue Kidney; for LIVER: tissue Liver; for A/G / ALP / ALT / AST / BUN / CRE / Ca / Cl / DBIL / GLC / IP / K / LDH / Na / PL / RALB / TBIL / TC / TG / TP / gamma-GTP: tissue Plasma

## Cc1nnc2n1-c1ccc(Cl)cc1C(c1ccccc1Cl)=NC2 [TRIAZOLAM]
3 h
  TERMINAL_BW: 193.6 g
  APTT: 16 s
  Bas: 0%
  Eos: 1%
  Fbg: 277.8 mg/dL
  Hb: 13.8 g/dL
  Ht: 41.7%
  Lym: 72%
  MCH: 20.9 pg
  MCHC: 33.2%
  MCV: 63 fL
  Mono: 3.2%
  Neu: 23%
  PT: 13.4 s
  Plat: 135.1 x10_4/uL
  RBC: 663 x10_4/ul
  Ret: 9.1%
  WBC: 64.9 x10_2/uL
  KIDNEY_L: 0.9 g
  KIDNEY_R: 0.9 g
  KIDNEY_TOTAL: 1.8 g
  LIVER: 8.3 g
  A/G: 0.9
  ALP: 1289.6 IU/L
  ALT: 38.8 IU/L
  AST: 72 IU/L
  BUN: 9.4 mg/dL
  CRE: 0.1 mg/dL
  Ca: 11 mg/dL
  Cl: 102.6 meq/L
  DBIL: 0.008 mg/dL
  GLC: 174.6 mg/dL
  IP: 10.4 mg/dL
  K: 4.3 meq/L
  LDH: 97.8 IU/L
  Na: 139.6 meq/L
  PL: 148.8 mg/dL
  RALB: 2.4 g/dL
  TBIL: 0.064 mg/dL
  TC: 78.2 mg/dL
  TG: 50 mg/dL
  TP: 5.2 g/dL
  gamma-GTP: 1 IU/L
6 h
  TERMINAL_BW: 193.6 g
  APTT: 18.3 s
  Bas: 0%
  Eos: 0.6%
  Fbg: 282 mg/dL
  Hb: 13.9 g/dL
  Ht: 42.3%
  Lym: 75.8%
  MCH: 20.6 pg
  MCHC: 32.8%
  MCV: 62.8 fL
  Mono: 2.2%
  Neu: 20.4%
  PT: 13.5 s
  Plat: 122.7 x10_4/uL
  RBC: 674 x10_4/ul
  Ret: 8.5%
  WBC: 87.5 x10_2/uL
  KIDNEY_L: 0.9 g
  KIDNEY_R: 0.9 g
  KIDNEY_TOTAL: 1.8 g
  LIVER: 8.3 g
  A/G: 0.9
  ALP: 1325.6 IU/L
  ALT: 36 IU/L
  AST: 67.4 IU/L
  BUN: 10 mg/dL
  CRE: 0.1 mg/dL
  Ca: 11.2 mg/dL
  Cl: 103.2 meq/L
  DBIL: 0.012 mg/dL
  GLC: 184.2 mg/dL
  IP: 10.9 mg/dL
  K: 4.5 meq/L
  LDH: 87.2 IU/L
  Na: 141.6 meq/L
  PL: 162.8 mg/dL
  RALB: 2.5 g/dL
  TBIL: 0.056 mg/dL
  TC: 85.4 mg/dL
  TG: 68.2 mg/dL
  TP: 5.3 g/dL
  gamma-GTP: 1.6 IU/L
9 h
  TERMINAL_BW: 192.1 g
  APTT: 16.7 s
  Bas: 0%
  Eos: 0.6%
  Fbg: 282.6 mg/dL
  Hb: 13.3 g/dL
  Ht: 40.5%
  Lym: 74.2%
  MCH: 20.9 pg
  MCHC: 32.8%
  MCV: 63.8 fL
  Mono: 2.4%
  Neu: 21.6%
  PT: 13.9 s
  Plat: 116.9 x10_4/uL
  RBC: 635.4 x10_4/ul
  Ret: 9.5%
  WBC: 86.1 x10_2/uL
  KIDNEY_L: 0.9 g
  KIDNEY_R: 0.9 g
  KIDNEY_TOTAL: 1.8 g
  LIVER: 7.6 g
  A/G: 0.9
  ALP: 1384.4 IU/L
  ALT: 41.8 IU/L
  AST: 73.4 IU/L
  BUN: 9 mg/dL
  CRE: 0.1 mg/dL
  Ca: 10.9 mg/dL
  Cl: 104 meq/L
  DBIL: 0.014 mg/dL
  GLC: 177.8 mg/dL
  IP: 10.6 mg/dL
  K: 4.4 meq/L
  LDH: 84.2 IU/L
  Na: 141 meq/L
  PL: 148 mg/dL
  RALB: 2.5 g/dL
  TBIL: 0.064 mg/dL
  TC: 76.4 mg/dL
  TG: 56.4 mg/dL
  TP: 5.1 g/dL
  gamma-GTP: 1.4 IU/L
24 h
  TERMINAL_BW: 208.3 g
  APTT: 17 s
  Bas: 0.2%
  Eos: 0.8%
  Fbg: 290.2 mg/dL
  Hb: 13.9 g/dL
  Ht: 41.6%
  Lym: 75.4%
  MCH: 20.8 pg
  MCHC: 33.4%
  MCV: 62.2 fL
  Mono: 2.8%
  Neu: 20.4%
  PT: 13 s
  Plat: 128.9 x10_4/uL
  RBC: 669.2 x10_4/ul
  Ret: 8.2%
  WBC: 97.7 x10_2/uL
  KIDNEY_L: 0.9 g
  KIDNEY_R: 0.9 g
  KIDNEY_TOTAL: 1.8 g
  LIVER: 9.9 g
  A/G: 0.9
  ALP: 1921.8 IU/L
  ALT: 44.8 IU/L
  AST: 60.2 IU/L
  BUN: 13.6 mg/dL
  CRE: 0.2 mg/dL
  Ca: 11.5 mg/dL
  Cl: 100.8 meq/L
  DBIL: 0.014 mg/dL
  GLC: 175.6 mg/dL
  IP: 10 mg/dL
  K: 4.3 meq/L
  LDH: 84.4 IU/L
  Na: 141.4 meq/L
  PL: 167.6 mg/dL
  RALB: 2.7 g/dL
  TBIL: 0.058 mg/dL
  TC: 85.2 mg/dL
  TG: 84.2 mg/dL
  TP: 5.6 g/dL
  gamma-GTP: 1 IU/L

Source: ChEMBL document CHEMBL3885861, “Open TG-GATES”
